In patent US20060194819A1, “Activation specific inhibitors of nf-kb and method of treating inflammatory processes in cardio-vascular diseases” (PROCORDE GMBH, priority 2003, published 2006):

Columns and labels:
IKK-complex = target: T1, IKK-complex (Homo sapiens, UniProt O14920+O15111+Q9Y6K9); assay: Cellular IKK kinase assay: HeLa cells treated with compound, TNF alpha stimulation, IKK-complex immunoprecipitated with anti-NEMO-antibody, I kappaB peptide phosphorylation by alpha screen; type: cell-based; conditions: HeLa cells, compound 1 h, TNF alpha 20 ng/ml, alpha screen; read-out: IC50 for inhibition of IKK-activity (I kappaB peptide phosphorylation)
T1 construct: IKK-complex was immunoprecipitated with anti-NEMO-antibody; endogenous in cells; host or cells: HeLa
Method: Kinase Assay Protocol: HeLa cells were maintained in Dulbecco's modified Eagle's medium (Invitrogen) supplemented with 10% fetal bovine serum, 2 mM L-glutamine, penicillin (50 units/ml) and streptomycin (50 μg/ml). 24 h before treatment with different compounds HeLa cells were plated at a density of 5×10^6 per well in 100-mm cell culture dishes to 90% confluences.
The cells were incubated with different drugs at the concentration indicated for 1 h, washed twice with PBS and stimulated with 20 ng/ml TNF alpha (Roche). After 7 min the cells were washed twice with ice cold PBS followed by scraping and transferring into a 1.5 ml microcentrifuge tube. After centrifugation by 2000 rpm for 2 min by 4° C. the PBS supernatant was removed and 200 μl Lyse-buffer (10 mM Hepes, pH 7.9, 0.1% NP40, 10 mM, 300 mM Sucrose, 10 mM KCl, 15 mM MgCl2, 1 mM DTT, 0.5 mM PMSF and antipain, aprotinin, leupeptin each 0.75 μg/ml (Sigma) was added to the pellet. The resuspended pellet was incubated on ice for 5 min and centrifuged at 13000 g for 30 s. The supernatant, cytosolic extract, was added to 200 μl TNT-buffer (200 mM NaCl, 20 mM Tris/HCl pH 7.5, 1% Triton X-100). Unspecific binding was blocked by incubation with 3 μg of normal rabbit IgG (Sigma) and 6 mg resuspended and prewashed Protein A Sepharose CI-4B (Pharmacia Biotech) for 30 min by 4° C. followed by immunoprecipitation for 1.5 h at 4° C. with 2 μg of anti-NEMO-antibody (Santa Cruz Biotechnology) and 6 mg resuspented and prewashed Protein A Sepharose CI-4B (Parmacia Biotech). […] 6.6 μl of detection-buffer (20 mM Hepes pH 7.5, 100 mM NaCl, 1% Tween, 0.1 mM BSA, 50 μg/ml Protein A-Acceptor beads, 250 μg/ml Streptavidin-Donor beads (both Perkin-Elmer), 4 nM anti-phospho-IKB antibody (Santa Cruz Biotechnology) was dispensed to each well. After incubation for 1.5 h the plate was measured by alpha screen reader (Perkin Elmer). […]

Solubility in PBS = type: physicochemical

T1 sequence (O14920 whole entry): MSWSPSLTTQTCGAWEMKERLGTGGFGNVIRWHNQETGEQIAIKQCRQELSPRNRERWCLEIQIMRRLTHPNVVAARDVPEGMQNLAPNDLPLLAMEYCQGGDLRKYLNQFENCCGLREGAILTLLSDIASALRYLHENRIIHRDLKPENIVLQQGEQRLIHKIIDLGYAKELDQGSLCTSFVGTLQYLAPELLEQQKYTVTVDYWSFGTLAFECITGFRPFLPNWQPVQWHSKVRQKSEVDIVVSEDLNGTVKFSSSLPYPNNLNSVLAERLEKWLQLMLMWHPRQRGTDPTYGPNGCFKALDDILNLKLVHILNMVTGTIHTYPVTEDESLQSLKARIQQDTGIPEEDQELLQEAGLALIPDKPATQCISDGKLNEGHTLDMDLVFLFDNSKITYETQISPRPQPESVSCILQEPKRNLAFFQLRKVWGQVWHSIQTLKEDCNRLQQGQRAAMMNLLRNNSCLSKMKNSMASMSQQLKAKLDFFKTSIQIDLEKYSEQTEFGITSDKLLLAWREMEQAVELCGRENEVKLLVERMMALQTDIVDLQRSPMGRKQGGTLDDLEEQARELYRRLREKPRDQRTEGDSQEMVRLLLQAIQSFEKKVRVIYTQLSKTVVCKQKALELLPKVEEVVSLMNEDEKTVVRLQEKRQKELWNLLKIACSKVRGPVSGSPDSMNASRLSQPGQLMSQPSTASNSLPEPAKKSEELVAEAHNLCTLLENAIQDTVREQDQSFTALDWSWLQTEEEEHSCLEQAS
T1 sequence (O15111 whole entry): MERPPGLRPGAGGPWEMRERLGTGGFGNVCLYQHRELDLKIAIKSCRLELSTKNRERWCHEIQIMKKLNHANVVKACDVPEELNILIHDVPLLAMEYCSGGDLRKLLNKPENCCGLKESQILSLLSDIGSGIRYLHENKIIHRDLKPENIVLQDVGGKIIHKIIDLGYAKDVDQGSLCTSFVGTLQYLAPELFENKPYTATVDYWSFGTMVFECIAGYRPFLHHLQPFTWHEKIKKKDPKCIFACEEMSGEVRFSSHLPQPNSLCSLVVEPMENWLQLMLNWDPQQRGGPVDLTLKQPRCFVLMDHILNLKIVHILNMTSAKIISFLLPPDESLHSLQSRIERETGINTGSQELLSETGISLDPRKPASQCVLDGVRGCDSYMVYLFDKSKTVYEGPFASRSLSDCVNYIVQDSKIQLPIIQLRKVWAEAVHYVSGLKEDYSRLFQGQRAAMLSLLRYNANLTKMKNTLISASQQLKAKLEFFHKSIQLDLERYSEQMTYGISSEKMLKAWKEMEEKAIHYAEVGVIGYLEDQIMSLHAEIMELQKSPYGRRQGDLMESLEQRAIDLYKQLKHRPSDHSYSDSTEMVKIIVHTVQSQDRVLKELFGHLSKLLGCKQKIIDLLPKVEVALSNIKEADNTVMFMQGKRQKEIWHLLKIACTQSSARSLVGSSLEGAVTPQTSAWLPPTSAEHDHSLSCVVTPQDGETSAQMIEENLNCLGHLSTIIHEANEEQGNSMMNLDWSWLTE
T1 sequence (Q9Y6K9 whole entry): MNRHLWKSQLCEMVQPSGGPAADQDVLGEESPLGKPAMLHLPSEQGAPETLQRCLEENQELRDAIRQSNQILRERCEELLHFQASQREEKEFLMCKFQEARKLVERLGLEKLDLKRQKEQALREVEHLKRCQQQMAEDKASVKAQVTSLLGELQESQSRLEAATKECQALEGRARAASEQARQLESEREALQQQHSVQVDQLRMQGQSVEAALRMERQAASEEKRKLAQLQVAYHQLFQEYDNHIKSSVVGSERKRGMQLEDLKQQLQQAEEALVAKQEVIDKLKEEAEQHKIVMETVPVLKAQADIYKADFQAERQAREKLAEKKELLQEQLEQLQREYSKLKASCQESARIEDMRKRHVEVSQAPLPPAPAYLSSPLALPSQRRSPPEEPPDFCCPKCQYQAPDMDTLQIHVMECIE

CCC(=O)C1=C(C)N=c2s/c(=C/c3cc(C)c(OCc4ccccc4Cl)c(I)c3)c(=O)n2C1c1ccc2c(c1)OCO2 (centres unmarked) [Compound 41]
IC50 (IKK-complex): 10 to 100 µM | solubility in PBS (Solubility in PBS): only partly soluble
